Values quoted from earlier work in US12629339B2, “Lithium salt extended-release formulations; methods of making; and methods of use thereof” (Almatica Pharma LLC, priority 2023, dated 2026).

Conditions: serum lithium level

Q: Which “Toxic concentration of lithium” value does the source give for `[Li]` [lithium] here?
A: Its value is ≥ 1.5 mEq/L.
